Data as given in ChEMBL document CHEMBL1201862, “PubChem BioAssay data set” (2004).
Activity calls are given as the source filed them.

Assays:
[1] = Luminescence-based dose response cell-based high throughput screening assay for cytotoxic compounds using the IEC-6 intestinal epithelial cell line. [Related pubchem assays: 1858 (Summary AID.), 1825 (Counterscreen.), 1907 (Confirmation screen.)]; type: functional
[2] = A cytotoxicity screen of small molecule inhibitors of the PhoP region in Salmonella typhi identified in the primary screen. [Related pubchem assays: 1850, 1864, 1985 ]; type: functional
[3] = biological target: FAD-linked sulfhydryl oxidase ALR (Homo sapiens, UniProt P55789); assay: ALR-catalysed DTT oxidation blockers – biochemical, H2O2 detection, luminescence, cherry-pick, dose response (AID 493248)
[4] = biological target: T1, Calpain-2 catalytic subunit (Sus scrofa, UniProt P43367); assay: m-calpain protease blockers, concentration series – biochemical, fluorogenic peptide substrate, dose response (AID 1420); type: functional
T1 sequence (P43367 whole entry): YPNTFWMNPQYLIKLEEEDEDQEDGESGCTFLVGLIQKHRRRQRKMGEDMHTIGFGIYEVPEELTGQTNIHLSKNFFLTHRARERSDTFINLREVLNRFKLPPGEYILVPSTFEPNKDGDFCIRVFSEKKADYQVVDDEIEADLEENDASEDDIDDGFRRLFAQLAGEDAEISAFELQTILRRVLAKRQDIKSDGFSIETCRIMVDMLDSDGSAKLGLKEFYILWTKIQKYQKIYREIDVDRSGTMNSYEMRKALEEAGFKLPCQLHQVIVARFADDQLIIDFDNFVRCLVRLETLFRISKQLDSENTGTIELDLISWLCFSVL

[5] = A Cell Based Secondary Assay To Explore Cytotoxicity of Compounds that Sensitize Mycobacterium Tuberculosis to Beta-Lactam Antibiotics.; type: functional
[6] = biological target: T2, Mannose-6-phosphate isomerase (Homo sapiens, UniProt P34949); assay: MPI inhibition at elevated mannose 6-phosphate – biochemical, fluorescence intensity, high mannose 6-phosphate, primary screen (AID 1220)
T2 sequence (P34949 whole entry): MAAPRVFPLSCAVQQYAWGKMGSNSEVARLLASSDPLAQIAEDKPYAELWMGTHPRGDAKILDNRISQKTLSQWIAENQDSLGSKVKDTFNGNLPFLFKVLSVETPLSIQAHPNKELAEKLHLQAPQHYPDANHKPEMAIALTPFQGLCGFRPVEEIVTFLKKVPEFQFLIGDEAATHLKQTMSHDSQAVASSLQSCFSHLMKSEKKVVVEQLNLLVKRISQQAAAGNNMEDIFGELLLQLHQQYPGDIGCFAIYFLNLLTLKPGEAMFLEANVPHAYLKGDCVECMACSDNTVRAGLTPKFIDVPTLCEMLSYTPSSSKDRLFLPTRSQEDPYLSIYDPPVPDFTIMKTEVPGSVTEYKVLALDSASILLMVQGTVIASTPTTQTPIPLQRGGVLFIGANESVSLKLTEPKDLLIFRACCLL

Aminopeptidase N = biological target: T3, Aminopeptidase N (Plasmodium falciparum FcB1/Columbia, UniProt O96935); assay: malaria alanyl aminopeptidase activity blockers – biochemical, fluorogenic H-Leu-NHMec substrate, 1536-well (AID 1445); parameters: species or system Plasmodium falciparum 3D7, 3D7
T3 sequence (O96935 whole entry): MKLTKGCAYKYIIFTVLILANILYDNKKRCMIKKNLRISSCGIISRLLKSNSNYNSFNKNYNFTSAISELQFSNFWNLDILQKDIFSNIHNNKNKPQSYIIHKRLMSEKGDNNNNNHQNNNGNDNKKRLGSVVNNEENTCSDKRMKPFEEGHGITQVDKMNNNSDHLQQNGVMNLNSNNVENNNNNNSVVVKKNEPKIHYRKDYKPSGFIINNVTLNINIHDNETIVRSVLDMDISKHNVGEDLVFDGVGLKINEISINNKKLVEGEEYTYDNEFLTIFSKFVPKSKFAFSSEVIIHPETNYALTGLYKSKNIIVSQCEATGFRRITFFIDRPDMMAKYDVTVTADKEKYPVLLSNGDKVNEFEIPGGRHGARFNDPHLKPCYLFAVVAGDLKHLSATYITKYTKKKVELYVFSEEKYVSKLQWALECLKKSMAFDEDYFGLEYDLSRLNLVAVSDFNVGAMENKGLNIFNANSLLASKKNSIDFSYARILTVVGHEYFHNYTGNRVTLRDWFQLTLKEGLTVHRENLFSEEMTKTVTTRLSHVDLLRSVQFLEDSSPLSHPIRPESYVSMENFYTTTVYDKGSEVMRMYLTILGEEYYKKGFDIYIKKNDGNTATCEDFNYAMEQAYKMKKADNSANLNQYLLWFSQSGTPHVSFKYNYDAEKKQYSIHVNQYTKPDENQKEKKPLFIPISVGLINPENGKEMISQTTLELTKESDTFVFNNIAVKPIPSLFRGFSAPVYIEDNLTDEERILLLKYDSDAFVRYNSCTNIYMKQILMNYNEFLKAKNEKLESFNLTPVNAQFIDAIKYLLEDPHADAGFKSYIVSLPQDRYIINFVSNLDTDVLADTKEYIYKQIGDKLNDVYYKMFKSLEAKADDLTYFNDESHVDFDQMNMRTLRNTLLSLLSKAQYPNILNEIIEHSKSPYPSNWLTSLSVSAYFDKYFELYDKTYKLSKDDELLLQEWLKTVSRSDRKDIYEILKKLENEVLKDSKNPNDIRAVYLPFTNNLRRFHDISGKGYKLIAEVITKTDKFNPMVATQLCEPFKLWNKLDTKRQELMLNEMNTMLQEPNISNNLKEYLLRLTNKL

[7] = CCR5-tropic HIV-1 fusion blockers – cell-based, CCR5-tropic Env, dose response (AID 2279); type: functional
H4 = assay: Luminescence Cell-Based Dose Response HTS to Identify Activators of 5'UTR Stem-Loop Driven Prion Protein mRNA Translation in H4 Neuroglioblastoma Cells. [Related pubchem assays: 1829 (Project Summary), 1814 (Primary HTS)]; type: functional; settings: Homo sapiens
[8] = Luminescence Cell-Based Dose Confirmation HTS to Identify Activators of 5'UTR Stem-Loop Driven Alpha-Synuclein mRNA Translation in H4 Neuroglioblastoma Cells. [Related pubchem assays: 1829 (Project Summary), 1814 (Primary HTS)]; type: functional
Genome polyprotein = Genome polyprotein (dengue virus type 2, UniProt P29990); assay: flavivirus cap methylation enzyme inhibition – biochemical, confirmation dose response, primary screen (AID 588689); type: functional
[9] = Luminescence Cell-Based Dose Response HTS to Identify Activators of Luciferase Translation or Activity in H4 […] Cells. [Related pubchem assays: 1829 (Project Summary), 1814 (Primary HTS)]; type: functional
Vero = assay: viability of Vero cells under compound – cytotoxicity control for flavivirus capping enzyme inhibitors (AID 588742); type: functional; settings: Chlorocebus sabaeus
[10] = Luminescence Cell-Based Dose Response to Identify Activators of Luciferase Translation or Activity in H4-C Neuroglioblastoma Cells. [Related pubchem assays: 1829 (Project Summary), 1814 (Primary HTS)]; type: functional
[11] = biological target: T4, Heat shock factor protein 1 (Mus musculus, UniProt P38532); assay: decrease of HSF1-responsive luciferase luminescence – cell-based, NIH3T3, dose retest, confirmation (AID 2382); type: functional;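 also: NIH3T3 fibroblasts with HSF1-driven luciferase reporter stressed by proteasome inhibitor MG132; luminescence from HSF1-driven luciferase expression after 8 hours of MG132 stress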
T4 sequence (P38532 whole entry): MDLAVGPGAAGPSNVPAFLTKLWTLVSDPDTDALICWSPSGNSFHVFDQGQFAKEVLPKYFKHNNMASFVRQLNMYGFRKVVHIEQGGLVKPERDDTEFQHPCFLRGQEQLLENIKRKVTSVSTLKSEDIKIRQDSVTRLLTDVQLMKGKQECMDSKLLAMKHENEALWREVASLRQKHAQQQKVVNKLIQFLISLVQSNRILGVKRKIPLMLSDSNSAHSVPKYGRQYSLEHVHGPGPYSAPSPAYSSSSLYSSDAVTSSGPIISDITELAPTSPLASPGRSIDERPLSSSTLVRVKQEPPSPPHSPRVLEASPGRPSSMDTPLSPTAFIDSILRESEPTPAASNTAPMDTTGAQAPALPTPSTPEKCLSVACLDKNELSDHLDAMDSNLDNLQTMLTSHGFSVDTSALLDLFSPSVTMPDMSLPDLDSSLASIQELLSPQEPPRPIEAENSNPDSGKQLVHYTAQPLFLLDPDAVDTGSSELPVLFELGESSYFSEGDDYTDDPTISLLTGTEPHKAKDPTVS

[12] = Luminescence Cell-Based Dose Response to Identify Activators of 5'UTR Stem-Loop Driven Prion Protein mRNA Translation in H4-C Neuroglioblastoma Cells. [Related pubchem assays: 1829 (Project Summary), 1814 (Primary HTS)]; type: functional
[13] = Luminescence Cell-Based Dose Confirmation to Identify Activators of 5'UTR Stem-Loop Driven Alpha-Synuclein mRNA Translation in H4 Neuroglioblastoma Cells. [Related pubchem assays: 1829 (Project Summary), 1814 (Primary HTS)]; type: functional
[14] = viability of uninfected HEp-2 cells – cell-based, HTS, cytotoxicity control for RSV inhibitor project, dose response (AID 2410); type: functional; settings: human respiratory syncytial virus
[15] = biological target: T5, Carboxy-terminal domain RNA polymerase II polypeptide A small phosphatase 1 (Homo sapiens, UniProt Q9GZU7); assay: CTDSP1 inhibitors, concentration-response, biochemical, absorbance readout, ultra-high-throughput screen actives (AID 540297); type: functional
T5 sequence (Q9GZU7 whole entry): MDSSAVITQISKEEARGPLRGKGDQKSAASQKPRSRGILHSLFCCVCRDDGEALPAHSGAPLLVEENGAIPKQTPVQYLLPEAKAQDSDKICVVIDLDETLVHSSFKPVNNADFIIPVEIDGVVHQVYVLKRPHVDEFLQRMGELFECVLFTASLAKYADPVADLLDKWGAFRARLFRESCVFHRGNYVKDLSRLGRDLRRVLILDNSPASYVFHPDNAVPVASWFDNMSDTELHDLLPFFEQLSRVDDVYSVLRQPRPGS

Estrogen receptor = biological target: T6, Estrogen receptor (Homo sapiens, UniProt P03372);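 also: potency for inhibiting coactivator peptide recruitment to the receptor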
T6 sequence (P03372 whole entry): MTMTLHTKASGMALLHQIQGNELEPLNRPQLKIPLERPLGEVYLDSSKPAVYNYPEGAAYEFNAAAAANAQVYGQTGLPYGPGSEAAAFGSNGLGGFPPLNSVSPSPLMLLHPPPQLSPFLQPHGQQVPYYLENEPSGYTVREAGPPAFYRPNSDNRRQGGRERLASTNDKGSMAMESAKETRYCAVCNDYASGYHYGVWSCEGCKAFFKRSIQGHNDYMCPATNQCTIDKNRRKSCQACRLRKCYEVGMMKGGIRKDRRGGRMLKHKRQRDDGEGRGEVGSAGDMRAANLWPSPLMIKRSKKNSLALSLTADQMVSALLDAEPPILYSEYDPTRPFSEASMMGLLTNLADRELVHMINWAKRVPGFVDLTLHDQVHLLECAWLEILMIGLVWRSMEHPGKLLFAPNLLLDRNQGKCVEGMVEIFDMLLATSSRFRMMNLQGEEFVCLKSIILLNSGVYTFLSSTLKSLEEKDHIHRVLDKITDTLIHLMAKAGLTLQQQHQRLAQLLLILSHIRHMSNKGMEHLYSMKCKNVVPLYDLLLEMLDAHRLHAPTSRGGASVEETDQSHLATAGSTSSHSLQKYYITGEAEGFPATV

[16] = viability of PTEN-deleted HCT116 cells – cell-based, HCT116 PTEN knockout, dose response (AID 1047); type: functional;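 also: HCT116 colon tumor cells with PTEN knocked out; cells exposed to compound for 60 hours before readout; potency for loss of cell viability measured by luminescence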
[17] = system: Streptococcus sp. 'group A'; assay: Streptococcus pyogenes SK(-)GAS viability under kanamycin – luminescence, BacTiterGlo, confirmation, counter-screen for streptokinase expression inhibitor project, dose response (AID 1900); type: functional, organism-based
Streptococcus = assay: GAS UMAA2166 growth inhibition – luminescence, BacTiterGlo, counter-screen for streptokinase expression inhibitor project, dose response (AID 1915); type: functional, organism-based;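 also: potency for reduction of bacterial viability or growth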
[18] = viability of HCT116 lacking mutant beta-catenin – cell-based, human colon tumor, dose response (AID 1045); type: functional;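 also: HCT116 colon tumor cells with beta catenin knocked out; cells exposed to compound for 60 hours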
INS1 = assay: INS-1E survival protection against cytokine death – cell-based, luminescence, retest, dose response (AID 449756); type: functional; settings: Rattus norvegicus;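 also: cell death triggered by IL-1 beta plus TNF-alpha plus IFN-gamma mixture; protective hits raise ATP signal compared with cytokine alone wells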

FAD-linked sulfhydryl oxidase ALR, sequence (P55789 whole entry): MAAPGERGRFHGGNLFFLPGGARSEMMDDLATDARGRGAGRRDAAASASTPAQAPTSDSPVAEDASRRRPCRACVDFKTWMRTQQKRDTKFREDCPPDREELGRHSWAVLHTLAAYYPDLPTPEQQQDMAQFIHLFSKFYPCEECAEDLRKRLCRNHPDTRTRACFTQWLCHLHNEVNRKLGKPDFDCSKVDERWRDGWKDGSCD
Genome polyprotein, sequence (P29990 2492-3391 limits assumed): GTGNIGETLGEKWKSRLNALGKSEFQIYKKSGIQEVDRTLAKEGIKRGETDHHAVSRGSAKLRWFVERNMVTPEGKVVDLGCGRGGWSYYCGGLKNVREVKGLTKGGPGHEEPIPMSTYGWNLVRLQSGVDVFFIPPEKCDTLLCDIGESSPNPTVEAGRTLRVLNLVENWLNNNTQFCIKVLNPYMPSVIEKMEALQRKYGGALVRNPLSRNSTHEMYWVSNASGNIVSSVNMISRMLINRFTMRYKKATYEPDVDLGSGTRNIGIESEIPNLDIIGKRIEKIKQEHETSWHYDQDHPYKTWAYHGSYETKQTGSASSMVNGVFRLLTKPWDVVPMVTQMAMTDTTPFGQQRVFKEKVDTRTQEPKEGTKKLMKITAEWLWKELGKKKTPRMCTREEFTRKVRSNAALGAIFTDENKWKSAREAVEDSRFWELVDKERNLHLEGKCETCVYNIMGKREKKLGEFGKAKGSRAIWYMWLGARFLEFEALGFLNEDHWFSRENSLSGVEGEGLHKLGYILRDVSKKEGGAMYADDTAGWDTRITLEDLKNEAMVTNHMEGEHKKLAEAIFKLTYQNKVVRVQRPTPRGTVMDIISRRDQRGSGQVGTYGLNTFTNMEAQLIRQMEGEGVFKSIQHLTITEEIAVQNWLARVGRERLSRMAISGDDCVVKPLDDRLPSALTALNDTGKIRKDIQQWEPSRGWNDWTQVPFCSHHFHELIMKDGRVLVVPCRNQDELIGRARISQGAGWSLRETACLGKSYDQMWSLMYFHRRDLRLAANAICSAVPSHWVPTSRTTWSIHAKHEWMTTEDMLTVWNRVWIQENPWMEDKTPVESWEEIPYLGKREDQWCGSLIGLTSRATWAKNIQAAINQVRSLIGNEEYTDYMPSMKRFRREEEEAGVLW

## OC1=C2C(=Nc3cc4c(cc3C2c2ccc(F)cc2)OCCO4)CO1 (configuration not stated)
[1]
  IC50: 0.0539 µM (active)

## COc1ccc(N(C(=O)c2cccnc2)S(=O)(=O)c2cccc([N+](=O)[O-])c2)cc1
[2]
  EC50: > 50 µM (active)

## O=C(CCNc1ccccc1)c1cccc([N+](=O)[O-])c1
[3]
  AC50: 5.58 µM (active)
[4]
  IC50: 14.1 µM (not active)
[5]
  CC50: 25.6 µM (active)
[6]
  IC50: 39.5 µM (active)

## CSc1nnc(-c2ccccc2/N=C/c2c(C)nn(-c3ccc4ccccc4c3)c2O)c(O)n1
Aminopeptidase N
  IC50: 31.9 µM (active)
[7]
  IC50: 3.61 µM (active)
H4
  EC50: 46.3 µM (active)
[8]
  EC50: 9.56 µM (active)
Genome polyprotein
  IC50: 37.5 µM (active)
[9]
  EC50: 8.3 µM (active)
Vero
  CC50: > 40 µM (active)

## CCn1c(C)cc(/C=C2/NC(=O)N(c3ccccc3)C2=O)c1C
[10]
  EC50: 0.236 µM (active)
[11]
  EC50: > 195 µM (not active)
H4
  EC50: > 120 µM (not active)
[9]
  EC50: < 0.1 µM (active)
[12]
  EC50: 0.505 µM (active)
[13]
  EC50: 0.307 µM (active)

## CCN=C(S)Nc1cccc(S(=O)(=O)Nc2ccccc2OC)c1
[2]
  EC50: > 50 µM (active)

## COc1cc(/C=C2\C(=N)N3N=C(S(C)(=O)=O)SC3=NC2=O)ccc1OCCOc1ccccc1C
[14]
  CC50: 26.3 µM (active)
[15]
  IC50: 3.51 µM (active)
[7]
  IC50: 28.5 µM (active)

## Cc1cc2nc(SCCN3CCOCC3)[nH]c2cc1C
[10]
  EC50: 0.338 µM (active)
H4
  EC50: 0.22 µM (active)
[8]
  EC50: < 0.1 µM (active)
[9]
  EC50: 1.88 µM (active)
[12]
  EC50: 0.61 µM (active)
[13]
  EC50: 0.345 µM (active)

## COc1cccc(-c2nnc(NC(=O)Cc3cccs3)s2)c1
Estrogen receptor
  IC50: 19.1 µM (active)

## CC(=O)c1c(N2CCN(c3cccc(Cl)c3)CC2)nc(=S)n(-c2ccccc2)c1C
[2]
  EC50: > 50 µM (active)

## C/C(=N/NC(=O)c1cccs1)c1c(C)[nH]n(-c2nc3ccccc3s2)c1=O
[16]
  EC50: 11.2 µM (active)
[17]
  EC50: 5.77 µM (active)
Streptococcus
  EC50: 9.42 µM (active)
[5]
  CC50: 25.8 µM (active)
[18]
  EC50: 10.9 µM (active)
INS1
  AC50: 7.34 µM (active)
